Results: ChEMBL document CHEMBL1133938, “Parallel solid-phase synthesis of zatebradine analogues as potential I(f) channel blockers” (2001)

Species on record: Cavia porcellus
Test: Inhibitory activity to reduce the spontaneous beating of isolated guinea-pig atria in a concentration-dependent manner at the dose of 3 uM
Assay type: functional

Row | SMILES | Max inhibition | inhibition at 3 µM
1 | COc1cc2c(cc1OC)CC(=O)N(CCCNCCOc1ccccc1)C=C2 | 80% | 53%
2 | COc1ccc(CCNCCCN2C=Cc3cc(OC)c(OC)cc3CC2=O)cc1 | 69% | 60%
3 | C=CCN(CCCN1C=Cc2cc(OC)c(OC)cc2CC1=O)CCc1ccccc1 | 71% | 53%
4 | COc1cc2c(cc1OC)CC(=O)N(CCCNCCCCc1ccccc1)C=C2 | 84% | 43%
5 | COc1cc2c(cc1OC)CC(=O)N(CCCNCCc1ccccc1)C=C2 | 81% | 60%
6 | C=CCN(CCCN1C=Cc2cc(OC)c(OC)cc2CC1=O)CCc1ccc(Cl)cc1 | 60% | 31%
7 | C=CCN(CCCc1ccccc1)CCCN1C=Cc2cc(OC)c(OC)cc2CC1=O | 100% | 44%
8 | COc1ccc(CCNCCCN2CCc3cc(OC)c(OC)cc3CC2=O)cc1OC | 68% | 40%
9 | COc1ccc(CCNCCCN2C=Cc3cc(OC)c(OC)cc3CC2=O)cc1OC | 77% | 59%
10 | COc1cc2c(cc1OC)CC(=O)N(CCCNCCc1ccc(Cl)cc1)C=C2 | 68% | 60%
11 | C=CCN(CCCN1C=Cc2cc(OC)c(OC)cc2CC1=O)CCc1ccc(OC)cc1 | 81% | 80%
12 | C=CCN(CCCCc1ccccc1)CCCN1C=Cc2cc(OC)c(OC)cc2CC1=O | 91% | 54%
13 | COc1ccc(CCN(CCCN2C=Cc3cc(OC)c(OC)cc3CC2=O)Cc2ccccc2)cc1OC | 59% | 25%
14 | C=CCN(CCCN1C=Cc2cc(OC)c(OC)cc2CC1=O)CCc1ccc(OC)c(OC)c1 | 69% | 34%
15 | C=CCN(CCCN1C=Cc2cc(OC)c(OC)cc2CC1=O)CCOc1ccccc1 | 100% | 42%
16 | COc1cc2c(cc1OC)CC(=O)N(CCCNCCCc1ccccc1)C=C2 | 60% | 31%
